Experimental data published in patent publication US8716320B2, “Antibacteriall heterocyclic ureas” (Replidyne, Inc., priority 2006, dated 2014).
≈ marks a conversion by molar mass, not a printed value. Blank lines part the entries; values can stand above or below the compound they belong to.

Legend:
[1] = biological target: S. pyogenes PolC (Streptococcus pyogenes, UniProt Q8NZB5); test: Inhibition of PolC primer extension activity (scintillation proximity assay); type: biochemical; conditions: serial 2-fold dilutions, XLfit
Sequence of S. pyogenes PolC (Q8NZB5 whole entry): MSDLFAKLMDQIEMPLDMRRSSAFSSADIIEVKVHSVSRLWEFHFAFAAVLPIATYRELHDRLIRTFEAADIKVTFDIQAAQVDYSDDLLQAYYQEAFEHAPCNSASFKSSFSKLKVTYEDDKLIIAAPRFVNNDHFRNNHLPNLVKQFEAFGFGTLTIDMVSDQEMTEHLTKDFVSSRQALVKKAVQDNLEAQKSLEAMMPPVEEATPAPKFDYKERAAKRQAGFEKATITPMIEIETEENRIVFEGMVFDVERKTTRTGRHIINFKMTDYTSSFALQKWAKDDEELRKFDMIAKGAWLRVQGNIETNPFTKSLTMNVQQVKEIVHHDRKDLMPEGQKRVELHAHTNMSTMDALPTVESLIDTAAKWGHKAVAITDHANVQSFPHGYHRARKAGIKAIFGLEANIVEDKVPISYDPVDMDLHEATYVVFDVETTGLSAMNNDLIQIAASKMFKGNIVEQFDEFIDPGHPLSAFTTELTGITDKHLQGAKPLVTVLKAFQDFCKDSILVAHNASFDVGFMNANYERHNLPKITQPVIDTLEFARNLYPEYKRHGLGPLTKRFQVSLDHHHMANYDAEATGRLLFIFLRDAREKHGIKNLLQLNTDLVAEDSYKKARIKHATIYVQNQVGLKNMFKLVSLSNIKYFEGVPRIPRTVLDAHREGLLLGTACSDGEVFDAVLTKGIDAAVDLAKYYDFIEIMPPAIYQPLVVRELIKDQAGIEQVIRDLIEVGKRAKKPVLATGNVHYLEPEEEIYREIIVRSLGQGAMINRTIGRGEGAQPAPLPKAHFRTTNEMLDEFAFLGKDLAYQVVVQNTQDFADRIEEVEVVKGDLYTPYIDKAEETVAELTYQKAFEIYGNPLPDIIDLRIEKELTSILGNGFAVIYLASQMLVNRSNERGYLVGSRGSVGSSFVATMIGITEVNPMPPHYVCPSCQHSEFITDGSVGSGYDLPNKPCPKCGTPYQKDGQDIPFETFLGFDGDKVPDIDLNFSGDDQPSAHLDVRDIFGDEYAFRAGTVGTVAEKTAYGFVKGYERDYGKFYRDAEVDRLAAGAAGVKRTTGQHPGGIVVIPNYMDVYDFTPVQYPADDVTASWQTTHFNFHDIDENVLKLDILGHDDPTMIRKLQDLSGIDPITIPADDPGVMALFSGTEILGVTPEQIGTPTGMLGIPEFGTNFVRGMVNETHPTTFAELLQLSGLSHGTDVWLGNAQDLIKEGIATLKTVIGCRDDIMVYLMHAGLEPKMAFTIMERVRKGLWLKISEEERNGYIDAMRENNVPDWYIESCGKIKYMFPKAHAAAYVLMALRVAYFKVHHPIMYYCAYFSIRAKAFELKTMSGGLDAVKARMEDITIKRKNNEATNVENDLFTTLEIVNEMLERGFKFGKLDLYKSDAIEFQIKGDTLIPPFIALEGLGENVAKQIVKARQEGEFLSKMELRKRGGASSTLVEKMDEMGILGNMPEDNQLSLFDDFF
Description: The polC gene from Streptococcus pyogenes was overexpressed and PolC was purified as described in PCT/JUS05/15548. Primer extension activity of PolC was measured using 1 μM oligonucleotide primer-template (primer strand 5′-ACCAGTGAGACGGGCAACA (SEQ ID NO: 1), template strand 5′-[…] SEQ ID NO: 2)). Reactions contained 10 mM magnesium acetate, 50 mM Tricine/Tris pH 7.8, 2.4% (w/v) polyethylene glycol (˜8000 MW), 0.024% pluronic F68, 1 mM dithiothreitol, 20 μM dATP, 20 μM dCTP, 0.5 μM dGTP, 0.72 μM dTTP, 0.28 μM 3H-dTTP (0.005 μCi/μL), 8% DMSO and 15 nM PolC. Reactions (25 μL) were incubated for 10 minutes at room temperature and stopped by addition of an equal volume of 100 mM EDTA. Incorporation of radiolabelled dTTP was measured by scintillation proximity assay by addition of 100 μL of 1 mg/mL PEI-PVT beads in 300 mM citrate pH 3.0.
Compounds of formula (I) were tested for inhibition of S. pyogenes PolC activity. Serial 2-fold dilutions of compounds were tested for inhibition of PolC activity and IC50's were determined (XLfit). […] These compounds were specific for prokaryotic DNA polymerase, showing little or no inhibition of eukaryotic S. cerevisiae polymerase delta at concentrations up to 160 μM.

[2] = tested on: S. aureus, S. pneumoniae, S. pyogenes, and E. faecalis; test: Broth microdilution MIC (CLSI), major Gram-positive organisms; type: cell-based; conditions: against some strains of S. aureus
Description: (§1) Compounds of the present invention were tested for antibacterial activity against a variety of pathogenic organisms including S. aureus, S. pneumoniae, S. pyogenes, E. faecalis, H. influenza and M. catarrhalis using a standard broth microdilution method to determine their minimum inhibitory concentrations (MICs). All compounds were tested using standard methods in accordance with CLSI guidelines (Clinical and Laboratory Standards Institute). […] Compounds of the present invention were not compromised by existing resistance to all drug classes tested, including β-lactams, glycopeptides, oxazolidinones, macrolides, and fluoroquinolones. In particular, the compound described in Example 31 was active against methicillin-(oxacillin-) resistant S. aureus (MRSA), vancomycin-intermediate S. aureus (VISA), linezolid-resistant S. aureus, methicillin-(oxacillin-) resistant S. epidermidis, macrolide-resistant S. pyogenes, macrolide-, penicillin-, and levofloxacin-resistant S. pneumoniae, and vancomycin-resistant E. faecalis (VRE).

[3] = tested on: S. aureus; test: Time kill kinetic studies; type: cell-based
[4] = tested on: S. pneumoniae; test: Time kill kinetic studies; type: cell-based
[5] = tested on: E. faecalis; test: Time kill kinetic studies; type: cell-based
[6] = tested on: E. faecium; test: Time kill kinetic studies; type: cell-based
[7] = tested on: S. epidermidis; test: Time kill kinetic studies; type: cell-based
[8] = tested on: S. pyogenes; test: Time kill kinetic studies; type: cell-based
[9] = tested on: clinically relevant resistant strains; test: MICs in clinically relevant resistant strains (all listed strains together); type: cell-based; conditions: for MIC: range over the resistant strains listed
Description: as §1

[10] = tested on: vancomycin-intermediate S. aureus (VISA); test: Antibacterial activity against resistant strains (MIC); type: cell-based
Description: as §1

[11] = tested on: linezolid-resistant S. aureus; test: as above; type: cell-based
Description: as §1

[12] = tested on: methicillin-(oxacillin-) resistant S. epidermidis; test: as above; type: cell-based
Description: as §1

[13] = tested on: macrolide-, penicillin-, and levofloxacin-resistant S. pneumoniae; test: as above; type: cell-based
Description: as §1

[14] = tested on: methicillin-(oxacillin-) resistant S. aureus (MRSA); test: as above; type: cell-based
Description: as §1

[15] = tested on: vancomycin-, macrolide-, and ciprofloxacin-resistant E. faecium; test: as above; type: cell-based
Description: as §1

[16] = tested on: vancomycin-resistant E. faecalis (VRE); test: as above; type: cell-based
Description: as §1

[17] = tested on: macrolide-resistant S. pyogenes; test: as above; type: cell-based
Description: as §1

[18] = tested on: MRSA, vancomycin-resistant E. faecalis (VRE), vancomycin-resistant E. faecium and macrolide-resistant S. pyogenes; test: MIC90 against resistant Gram-positive bacteria; type: cell-based, S. aureus
Description: as §1

SMILES: COCc1csc(NC(=O)NCc2ccc(Cl)c(Cl)c2)n1 [Example 19, 1-(3,4-Dichlorobenzyl)-3-(4-(methoxymethyl)thiazol-2-yl)urea]
IC50 [1]: 0.11 to 25 µM

SMILES: CCCCOCc1csc(NC(=O)NCc2ccc(Cl)c(Cl)c2)n1 [Example 21, 1-(3,4-Dichlorobenzyl)-3-(4-(butoxymethyl)thiazol-2-yl)urea]
MIC [2]: 0.12 to 4 µg/mL (≈ 0.309 to 10.3 µM)

SMILES: CS(=O)(=O)CCOCc1csc(NC(=O)NCc2ccc(Cl)c(Cl)c2)n1 [Example 28, 1-(3,4-Dichlorobenzyl)-3-(4-((2-(methylsulfonyl)ethoxy)methyl)thiazol-2-yl)urea]
time kill kinetics result [3]: bactericidal
time kill kinetics result [4]: bactericidal
time kill kinetics result [5]: bactericidal
time kill kinetics result [6]: bactericidal
time kill kinetics result [7]: bactericidal
time kill kinetics result [8]: bactericidal
MICs in sensitive versus drug resistant strains [9]: comparable
MIC [9]: 0.5 to 4 µg/mL (≈ 1.14 to 9.12 µM)
activity against resistant strain [10]: active
activity against resistant strain [11]: active
activity against resistant strain ([12]; methicillin-(oxacillin-) resistant and mupirocin resistant S. epidermidis): active
activity against resistant strain [13]: active
activity against resistant strain [14]: active
activity against resistant strain [15]: active
activity against resistant strain ([16]; vancomycin-, macrolide-, and ciprofloxacin-resistant E. faecalis (VRE)): active
activity against resistant strain [17]: active
MIC90 [18]: 1 to 8 µg/mL (≈ 2.28 to 18.2 µM)

SMILES: O=C(NCc1ccc(Cl)c(Cl)c1)Nc1nc(COCCO)cs1 [Example 31, 1-(3,4-Dichloro-benzyl)-3-[4-(2-hydroxy-ethoxymethyl)-thiazol-2-yl]-urea]
time kill kinetics result [3]: bactericidal
time kill kinetics result [4]: bactericidal
time kill kinetics result [5]: bactericidal
MICs in sensitive versus drug resistant strains [9]: comparable
MIC [9]: 1 to 32 µg/mL (≈ 2.66 to 85 µM)
activity against resistant strain [10]: active
activity against resistant strain [11]: active
activity against resistant strain ([12]; methicillin-(oxacillin-) resistant S. epidermidis): active
activity against resistant strain [13]: active
activity against resistant strain [14]: active
activity against resistant strain ([16]; vancomycin-resistant E. faecalis (VRE)): active
activity against resistant strain [17]: active

SMILES: O=C(NCc1ccc(Cl)c(Cl)c1)Nc1nc(CO)cs1 [Example 39, 1-(3,4-Dichlorobenzyl)-3-(4-(hydroxymethyl)thiazol-2-yl)urea]
IC50 [1]: 0.11 to 25 µM
MIC [2]: 0.12 to 4 µg/mL (≈ 0.361 to 12 µM)

The next lines start with the values.

MIC [2]: 0.12 to 4 µg/mL (≈ 0.328 to 10.9 µM)
SMILES: COCCOCc1csc(NC(=O)NCc2ccc3c(c2)OCO3)n1 [Example 52, 1-Benzo[1,3]dioxol-5-ylmethyl-3-[4-(2-methoxy-ethoxymethyl)-thiazol-2-yl]-urea]

IC50 [1]: 0.11 to 25 µM
SMILES: COCCOCc1csc(NC(=O)NCc2ccc(Br)cc2)n1 [Example 56, 1-(4-bromobenzyl)-3-(4-((2-methoxyethoxy)methyl)thiazol-2-yl)urea]

MIC [2]: 0.12 to 4 µg/mL (≈ 0.249 to 8.31 µM)
SMILES: CC(=O)Nc1ccc(SCc2csc(NC(=O)NCc3ccc(Cl)c(Cl)c3)n2)cc1 [Example 149, 1-(3,4-dichlorobenzyl)-3-(4-((4-acetamidophenylthio)methyl)thiazol-2-yl)urea]
